Several values for one entry are separate records, joined by “and”; a condition that tells them apart may be missing. Equal values may be shown once. Read-outs that look alike come from different tables or passages of the source. No end group written: not given here.
Columns and labels:
CD8+ T cells = test system: CD8+ T cells; design: species or system transgenic HLA-A24 mice; settings: mouse, in vivo
[1] = test system: memory CD8^+ T cells within PBMCs; assay type: cell-based, human
tetramer^+ CD8^+ T cells [2] = assay type: cell-based, human
human lung CD8^+ T cells = experiment: Ex vivo tetramer detection in human lung samples from deceased organ donors; assay type: cell-based; settings: for epitope-specific CD8^+ T cells detected within human lung CD8^+ T cells: n=3 lung donors
Excerpt: As human memory CD8^+ T cells also reside outside the circulation, a rare set of human lung samples from deceased organ donors (n=3) were used to assess the presence of universal A2/PB1413^+CD8^+ T cells at the site of infection. CD8^+ T cells specific for A2/M158 and A2/PB1413, but not A2/BHA543 were detected within human lung CD8^+ T cells (2/3 donors for either specificity, FIG. 3f). […] Although based on a limited number of donors, this analysis indicates the presence of universal A2/PB1413^+ tissue-resident memory CD8^+ T cell pools in the human lung.

tetramer^+ CD8^+ T cells [3] = experiment: Tetramer staining of IAV- or IBV-specific CD8^+ T cell lines established in vitro from healthy adult PBMC; assay type: cell-based, human; settings: for tetramer^+ of CD8^+ T cells, median: n=11
Excerpt: Conversely, the universal A2/PB1413 epitope within the IBV-specific T cell lines was immunodominant (0.3%; detected in 8/11 donors) over the IBV-specific A2/BHA543 (0.11%; detected in 10/11 donors) and A2/BNS1266 epitopes (0.01%) (FIG. 4c).

CD8^+ T cells [4] = test system: CD8^+ T cells
HLA-A*02:01 [5] = target: T1, HLA-A*02:01 (Homo sapiens, UniProt P04439, D140Y/D185E/D98H/E176V/E277Q/G131W/G231S/I119V/I121R/I166T/I218V/L300P/L318F/N151K/N90K/P208A/P217A/Q86G/Q94H/R138H/R169H/T345S); settings: reference 34; cited from earlier work
CD8^+ T cells [6] = test system: CD8^+ T cells; design: species or system HHD-A2 mice; settings: mouse, in vivo
CD8^+ T cells [7] = experiment: Recall responses in HHD-A2 mice primed with B/Malaysia and challenged with B/Phuket; assay type: in vivo; settings: for number of secondary IFNγ^+TNF^+ CD8^+ T cells in the spleen versus primary infection: spleen d8 after B/Phuket challenge, not statistically significant
Excerpt: To further verify the immunogenicity of these epitopes in recall responses, HHD-A2 mice were primed i.n. with B/Malaysia, infected with the heterologous strain B/Phuket 6 weeks later and then assessed CD8^+ T cells against the main epitopes A2/BHA543-551 and A2/BNS1266-274 in the spleen on d8 after challenge.

CD8^+ T cells [8] = experiment: In vitro screening and validation in HLA-A*02:01-expressing human PBMCs, CD8^+ T cell lines, IFNγ/TNF ICS; assay type: cell-based; settings: for ICS responses in healthy A2:01+ donors: 10 days culture with 10 μM peptide and IL-2, re-stimulation 1 μM; for CD8^+ T cell response hierarchy of individual peptides: HLA-A*0201^+ donors, dissection of pools into individual peptides; for CD8^+ T cell response, median / donors with response: T cell lines towards individual peptides, n=6
Excerpt: As a next step, the IBV-specific CD8^+ T cell responses towards the 67 LC/MS-identified IBV-peptides in HLA-A*02:01-expressing individuals were dissected. CD8^+ T cell lines specific for each of the 6 peptide pools were established, and then re-stimulated cells with the cognate pool in an IFNγ/TNF ICS assay (FIG. 2f).
To validate these responses independently of the peptide pools, CD8^+ T cell lines were established towards individual immunogenic peptides (FIG. 2i). […] Thus, these thorough in vivo and in vitro analyses identified 5 novel peptides recognized by CD8^+ T cells in complex with the HLA-A*02:01 molecule, with BHA543-551 being immunodominant amongst the peptides tested, in both mice and humans.
Peripheral blood mononuclear cells (PBMC) from healthy A2:01+ donors were cultured in the presence of antigens (10 μM peptide) for 10 days in the presence of IL-2 (10 U/ml). On day 10 PBMCs were stimulated with peptides (1 μM) for 5 hours in the presence of BFA. Cells were surface stained for CD3 and CD8 and intracellularly stained for IFNγ and TNF using the BD cytofix/cytoperm kit according to the manufacturer's instructions (BD Biosciences).
Any pools with positive ICS responses were then dissected to their individual peptides.

HLA-A*02:01 [9] = target: T1, HLA-A*02:01; experiment: Thermal stability of pHLA-A*02:01 complex (Tm); assay type: binding
CD8^+ T cells [10] = assay type: cell-based, human
CD8^+ T cells [11] = assay type: cell-based, human; remark: listed apart in the source
tetramer^+CD8^+ T cells = assay type: cell-based, human
CD8+ T Lymphocytes = assay type: cell-based, human
A2/PB1413^+CD8^+ T cells = assay type: cell-based, human
IBV = test system: IBV; design: species or system HHD-A2 mice; settings: mouse, in vivo
[12] = test system: A2/PB1413-specific CD8^+ T cells; assay type: cell-based, human; settings: n=24
CD8^+ T cells [13] = test system: CD8^+ T cells; design: species or system A24 mice; settings: mouse
[14] = IAV-specific CD8^+ T cell lines

## AAYEDLRVL (Influenza B virus) [NP392-400]
CD8+ T cells
  immunogenicity (induction of IFNγ production in CD8+ T cells after peptide re-stimulation): immunogenic

## FEDLRVLSA (Influenza A virus) [NP338-345]
[1]
  memory CD8^+ T cell responses (IFN-γ production after peptide re-stimulation): robust memory CD8^+ T cell responses

## GILGFVFVL [M158-66, GILGFVFVL, reference compound]
tetramer^+ CD8^+ T cells [2]
  CD38^+/Ki-67^+ expression of tetramer-positive CD8^+ T cells: increase
  increase in frequency of epitope-specific CD8^+ T cells in blood versus healthy donors: 4.3 fold
  individuals with detected epitope-specific CD8^+ T cells: 100%
Human lung CD8^+ T cells
  epitope-specific CD8^+ T cells detected within human lung CD8^+ T cells: 2/3
tetramer^+ CD8^+ T cells [3]; [14]
  donors with detected tetramer^+ cells: 11 donors
  tetramer^+ of CD8^+ T cells, median: 3.9%
CD8^+ T cells [4]
  EC50: 8.1 nM
HLA-A*02:01 [5]
  Tm (temperature required to unfold 50% of the protein) of pHLA-A*02:01 complex: 65 °C

## GLDNHTILL [HA543-551, GLDNHTILL]
CD8^+ T cells [6]
  CD8+ T cell responses (IFNγ and TNF production): CD8+ T cell responses were targeted
  CD8^+ T cell response, mean: 5 % of CD8^+ T cells
  CD8^+ T cell responses at the site of infection: targeted
CD8^+ T cells [7]; primary infection
  polyfunctional IFNγ^+TNF^+IL-2^+ CD8^+ T cells: 0.14 % of CD8^+ T cells
CD8^+ T cells [7]; secondary infection, p=0.013
  polyfunctional IFNγ^+TNF^+IL-2^+ CD8^+ T cells: 2.14 % of CD8^+ T cells
CD8^+ T cells [7]
  number of secondary IFNγ^+TNF^+ CD8^+ T cells in the spleen versus primary infection: ~27 fold
CD8^+ T cells [8]
  ICS responses in healthy A2:01+ donors: detected across multiple donors
  CD8^+ T cell response hierarchy of individual peptides: immunodominant epitope
  CD8^+ T cell response, median: 7.35 % of CD8^+ T cells
  donors with response: 6/6
tetramer^+ CD8^+ T cells [2]
  CD38^+/Ki-67^+ expression of tetramer-positive CD8^+ T cells: increase
  increase in numbers of epitope-specific CD8^+ T cells versus healthy donors: 2.2 fold
  individuals with detected epitope-specific CD8^+ T cells: 75%
Human lung CD8^+ T cells
  epitope-specific CD8^+ T cells detected within human lung CD8^+ T cells: not
tetramer^+ CD8^+ T cells [3]; IBV-specific T cell lines
  donors with detected tetramer^+ cells: 10/11
  tetramer^+ of CD8^+ T cells, median: 0.11%
HLA-A*02:01 [9]
  Tm (temperature required to unfold 50% of the protein) of pHLA-A*02:01 complex: ~72 °C
CD8^+ T cells [10]
  polyfunctionality: inferior
CD8^+ T cells [11]
  additional low avidity CD8^+ T cells detected by Q115E staining: could be detected
tetramer^+CD8^+ T cells
  d14 frequency lower than universal A2/PB1413^+CD8^+ T cells: 5 fold
CD8^+ T cells [4]
  EC50: 0.78 nM

## IYFSPIRVTF (Influenza B virus) [NP164-173]
CD8+ T cells
  immunogenicity (induction of IFNγ production in CD8+ T cells after peptide re-stimulation): immunogenic

## IYHPGGNKL (Influenza B virus) [PB2245-253]
CD8+ T cells
  immunogenicity (induction of IFNγ production in CD8+ T cells after peptide re-stimulation): immunogenic

## KYVLFHTSL (Influenza B virus) [PA457-465]
CD8+ T Lymphocytes
  CD8+ T cell responses (IFNγ) after single peptide re-stimulation: immunogenic response

## LYSDILLKF (Influenza B virus) [NA32-40]
CD8+ T cells
  immunogenicity (induction of IFNγ production in CD8+ T cells after peptide re-stimulation): immunogenic

## NFAMELPSF (Influenza B virus) [PB1503-511]
CD8+ T Lymphocytes
  CD8+ T cell responses (IFNγ) after single peptide re-stimulation: immunogenic response

## NMLSTVLGV [PB1413-421, NMLSTVLGV]
[1]
  memory CD8^+ T cell responses (IFN-γ production after peptide re-stimulation): robust memory CD8^+ T cell responses
A2/PB1413^+CD8^+ T cells
  IFN-γ production towards peptide: minimal
  magnitude of A2/PB1413-specific CD8^+ T cells: markedly increased
IBV
  epitope-specific CD8^+ T cells after immunization: could not be detected
tetramer^+ CD8^+ T cells [2]
  CD38^+/Ki-67^+ expression of tetramer-positive CD8^+ T cells: increase
  increase in frequency of epitope-specific CD8^+ T cells in blood versus healthy donors: 6 fold
  increase in numbers of epitope-specific CD8^+ T cells versus healthy donors: 2.6 fold
  individuals with detected epitope-specific CD8^+ T cells: 50% and 87.5%
Human lung CD8^+ T cells; human lung
  phenotype of the majority of lung tetramer^+ CD8^+ T cells: tissue-resident memory CD69^+CD103^+CD45RO^+ phenotype
Human lung CD8^+ T cells
  epitope-specific CD8^+ T cells detected within human lung CD8^+ T cells: 2/3
tetramer^+ CD8^+ T cells [3]; [14]
  donors with detected tetramer^+ cells: 10/11
  tetramer^+ of CD8^+ T cells, median: 0.12%
tetramer^+ CD8^+ T cells [3]; IBV-specific T cell lines
  donors with detected tetramer^+ cells: 8/11
  tetramer^+ of CD8^+ T cells, median: 0.3%
HLA-A*02:01 [9]
  Tm (temperature required to unfold 50% of the protein) of pHLA-A*02:01 complex: ~72 °C
CD8^+ T cells [11]
  additional low avidity CD8^+ T cells detected by Q115E staining: no additional
tetramer^+CD8^+ T cells
  increase from baseline to d14: 19 fold
[12]
  healthy donors with detectable levels of epitope-specific CD8^+ T cells: 80%
CD8^+ T cells [4]
  EC50: 0.89 nM

## RYGFVANF (Influenza A virus) [PB1498-505]
CD8^+ T cells [13]
  in vivo CD8^+ T cell responses: targeted

## SFSFGGFTF (Influenza A virus) [PB2322-330]
CD8^+ T cells [13]
  in vivo CD8^+ T cell responses: targeted

## SLNDDGLDNHTILL (Influenza B virus) [HA538-551]
CD8^+ T cells [6]
  CD8+ T cell responses (IFNγ and TNF production): detected
CD8^+ T cells [8]
  CD8^+ T cell response hierarchy of individual peptides: Subdominant responses

## SQFGQEHRL (Influenza B virus) [NS1266-274]
CD8^+ T cells [6]
  CD8+ T cell responses (IFNγ and TNF production): CD8+ T cell responses were targeted
  CD8^+ T cell response, mean: 1.8 % of CD8^+ T cells
  CD8^+ T cell responses at the site of infection: targeted
CD8^+ T cells [7]
  number of secondary IFNγ^+TNF^+ CD8^+ T cells in the spleen versus primary infection: ~27 fold
CD8^+ T cells [8]
  ICS responses in healthy A2:01+ donors: detected across multiple donors
  CD8^+ T cell response hierarchy of individual peptides: Subdominant responses
  CD8^+ T cell response, median: 0.035 % of CD8^+ T cells
  donors with response: single donor
tetramer^+ CD8^+ T cells [3]; IBV-specific T cell lines
  tetramer^+ of CD8^+ T cells, median: 0.01%

## SYINRTGTFEF (Influenza A virus) [PB1482-492]
CD8^+ T cells [13]
  in vivo CD8^+ T cell responses: targeted

## SYLIRALTL (Influenza A virus) [PB1216-224]
CD8^+ T cells [13]
  in vivo CD8^+ T cell responses: targeted

## TYHSYANNI (Influenza B virus) [NA213-221]
CD8+ T cells
  immunogenicity (induction of IFNγ production in CD8+ T cells after peptide re-stimulation): immunogenic

## TYQWIIRNW (Influenza A virus) [PB2549-557]
CD8^+ T cells [13]
  in vivo CD8^+ T cell responses: targeted

## TYQWVLKNL (Influenza B virus) [PB2550-558]
CD8+ T cells
  immunogenicity (induction of IFNγ production in CD8+ T cells after peptide re-stimulation): immunogenic

## VLSQFGQEHRL (Influenza B virus) [NS1264-274]
CD8^+ T cells [6]
  CD8+ T cell responses (IFNγ and TNF production): detected
  CD8^+ T cell responses at the site of infection: targeted
CD8^+ T cells [8]
  CD8^+ T cell response hierarchy of individual peptides: Subdominant responses
  CD8^+ T cell response, median: 0.025 % of CD8^+ T cells
  donors with response: single donor

## VSDGGPNLY (Influenza A virus) [PB1591-599]
[1]
  memory CD8^+ T cell responses (IFN-γ production after peptide re-stimulation): robust memory CD8^+ T cell responses

## YFSPIRVTF (Influenza B virus) [NP165-173]
CD8+ T cells
  immunogenicity (induction of IFNγ production in CD8+ T cells after peptide re-stimulation): immunogenic

## YLNPGNYSM (Influenza B virus) [M1132-140]
CD8^+ T cells [8]
  CD8^+ T cell response hierarchy of individual peptides: Subdominant responses
  donors with response: single donor

## YYSTAASSL (Influenza B virus) [HA552-560]
CD8+ T Lymphocytes
  CD8+ T cell responses (IFNγ) after single peptide re-stimulation: immunogenic response

Reference: patent US11517617B2, “Methods and compositions for preventing influenza infection” (THE UNIVERSITY OF MELBOURNE, priority 2017, dated 2022)
